These results are taken from US9603833B2, “Benzene or thiophene derivative and use thereof as VAP-1 inhibitor” (R-Tech Ueno, Ltd., priority 2008, dated 2017).

In assay [1] the target is human VAP-1 enzyme (SSAO) (Homo sapiens (Human), UniProt Q16853). Kind of assay: Inhibitory effect on human VAP-1 enzyme (SSAO), radiochemical-enzyme assay using 14C-benzylamine. In kind it is biochemical. The following applies: human VAP-1 expressed in a cell, cell extract; 14C-benzylamine 1×10^−5 mol/L; 37° C., 2 hours. On the procedure:
(§1) The compounds of the present invention obtained in Production Examples were examined for the inhibitory effect on human and rat VAP-1 enzyme (SSAO) by the following method.
(§2) The VAP-1 enzyme (SSAO) activity in both human and rat was measured by a radiochemical-enzyme assay using ^14C-benzylamine as an artificial substrate. Human or rat VAP-1 was cloned from the cDNA library and expressed in a cell. The cell extract was preincubated with a test compound solution (final concentration 1×10^−7-1×10^−10 mol/L) at room temperature for 20 minutes. Then, ^14C-benzylamine (final concentration 1×10^−5 mol/L) was added, and the mixture was incubated at a final volume of 200 μL at 37° C. for 2 hours. The enzyme reaction was stopped by addition of 2 mol/L (200 μL) citric acid. The oxidation product was extracted with 1 mL toluene/ethyl acetate (1:1), and the radioactivity thereof was measured by a liquid scintillation counter.

Assay [2] concerns the target rat VAP-1 enzyme (SSAO) (Rattus norvegicus (Rat), UniProt O08590). Kind of assay: Inhibitory effect on rat VAP-1 enzyme (SSAO), radiochemical-enzyme assay using 14C-benzylamine. It is filed as biochemical. The following applies: rat VAP-1 expressed in a cell, cell extract; 14C-benzylamine 1×10^−5 mol/L; 37° C., 2 hours. On the procedure:
as §1, §2

SMILES strings stand for the structures. pIC50: −log10 of the molar value. Where a name gives a salt, the structure may show the parent alone.

Chain of rat VAP-1 enzyme (SSAO) (O08590 whole entry): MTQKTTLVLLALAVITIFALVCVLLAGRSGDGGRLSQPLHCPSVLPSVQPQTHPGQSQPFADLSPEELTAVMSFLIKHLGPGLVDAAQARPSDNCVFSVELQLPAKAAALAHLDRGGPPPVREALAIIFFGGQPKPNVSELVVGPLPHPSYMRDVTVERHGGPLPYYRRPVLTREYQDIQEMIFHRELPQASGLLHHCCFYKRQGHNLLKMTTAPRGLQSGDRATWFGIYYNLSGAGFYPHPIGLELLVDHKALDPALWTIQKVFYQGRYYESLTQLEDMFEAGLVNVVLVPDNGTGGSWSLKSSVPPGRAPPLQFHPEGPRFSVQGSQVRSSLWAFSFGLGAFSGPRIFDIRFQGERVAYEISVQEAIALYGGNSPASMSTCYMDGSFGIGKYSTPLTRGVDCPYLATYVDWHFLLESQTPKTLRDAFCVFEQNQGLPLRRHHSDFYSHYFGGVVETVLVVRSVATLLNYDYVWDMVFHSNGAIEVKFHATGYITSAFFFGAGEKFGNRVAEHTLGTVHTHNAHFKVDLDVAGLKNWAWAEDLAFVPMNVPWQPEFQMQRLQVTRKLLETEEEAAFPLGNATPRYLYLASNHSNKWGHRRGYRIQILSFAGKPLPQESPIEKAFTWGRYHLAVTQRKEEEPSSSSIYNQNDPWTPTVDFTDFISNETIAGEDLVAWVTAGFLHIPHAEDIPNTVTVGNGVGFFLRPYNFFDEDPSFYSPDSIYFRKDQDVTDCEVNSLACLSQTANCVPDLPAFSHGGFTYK
Chain of human VAP-1 enzyme (SSAO) (Q16853 whole entry): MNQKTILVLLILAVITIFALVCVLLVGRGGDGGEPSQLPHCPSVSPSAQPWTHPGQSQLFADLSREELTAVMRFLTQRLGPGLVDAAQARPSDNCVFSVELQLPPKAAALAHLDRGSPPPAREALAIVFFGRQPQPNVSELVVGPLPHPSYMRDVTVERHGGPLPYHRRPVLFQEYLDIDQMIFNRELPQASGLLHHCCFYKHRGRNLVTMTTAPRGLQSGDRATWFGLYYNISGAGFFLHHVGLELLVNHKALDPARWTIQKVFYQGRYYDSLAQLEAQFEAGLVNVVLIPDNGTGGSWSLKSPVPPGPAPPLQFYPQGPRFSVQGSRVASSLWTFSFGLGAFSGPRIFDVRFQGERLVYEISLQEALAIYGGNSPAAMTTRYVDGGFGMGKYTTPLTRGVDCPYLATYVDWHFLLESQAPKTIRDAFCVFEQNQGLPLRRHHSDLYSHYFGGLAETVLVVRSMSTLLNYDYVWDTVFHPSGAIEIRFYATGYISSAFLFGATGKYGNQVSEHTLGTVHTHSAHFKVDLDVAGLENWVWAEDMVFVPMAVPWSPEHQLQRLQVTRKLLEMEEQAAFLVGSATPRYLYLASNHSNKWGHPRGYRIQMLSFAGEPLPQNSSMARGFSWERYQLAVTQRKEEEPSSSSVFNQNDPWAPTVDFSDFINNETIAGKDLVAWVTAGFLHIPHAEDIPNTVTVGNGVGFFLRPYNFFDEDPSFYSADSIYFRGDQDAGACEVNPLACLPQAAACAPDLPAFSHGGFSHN

With `CC(=O)N1CCN(c2ccc(CCc3ccc(COC(=O)NN)cc3F)nc2)CC1` [Production Example 113, 4-{2-[5-(4-acetylpiperazin-1-yl)pyridin-2-yl]ethyl}-3-fluorobenzyl hydrazinecarboxylate trihydrochloride], the figures for the pIC50 in assay [1] and in assay [2] were 9.05 and 9.15, respectively.

On to `CCCN(C)c1ccc(CCc2ccc(CC(=O)NN)cc2)cn1` [Production Example 90, 2-[4-(2-{6-[methyl(propyl)amino]pyridin-3-yl}ethyl)phenyl]acetohydrazide trihydrochloride], for which the pIC50 is 7.66 in assay [1] and 8.85 in assay [2].

Consider `NNC(=O)Cc1ccc(CCc2ccc(N3CCNCC3)cn2)cc1` [Production Example 86, 2-{4-[2-(5-piperazin-1-ylpyridin-2-yl)ethyl]phenyl}acetohydrazide tetrahydrochloride], for which the results for the pIC50 in assay [1] and in assay [2] were 8.01 and 9.00, respectively.

Regarding `CCN(CC)c1ccc(CCc2ccc(CC(=O)NN)cc2)nc1` [Production Example 88, 2-(4-{2-[5-(diethylamino)pyridin-2-yl]ethyl}phenyl)acetohydrazide trihydrochloride], the pIC50 is 7.99 in assay [1] and 9.05 in assay [2].

In the case of `NNC(=O)Cc1ccc(CCc2ccc(CN3CCOCC3)cc2)cc1` [Production Example 70, 2-(4-{2-[4-(morpholin-4-ylmethyl)phenyl]ethyl}phenyl)acetohydrazide dihydrochloride], the pIC50 was 7.75 in assay [1] and 8.89 in assay [2].

Turning to `CC(=O)N1CCN(c2ccc(CCc3cccc(COC(=O)NN)c3)nc2)CC1` [Production Example 111, 3-{2-[5-(4-acetylpiperazin-1-yl)pyridin-2-yl]ethyl}benzyl hydrazinecarboxylate trihydrochloride], the figures for the pIC50 in assay [1] and in assay [2] were 9.30 and 9.40, respectively.

Regarding `CC(=O)N1CCN(c2ccc(CCc3ccc(CCOC(=O)NN)s3)nc2)CC1` [Production Example 115, 2-(5-{2-[5-(4-acetylpiperazin-1-yl)pyridin-2-yl]ethyl}thiophen-2-yl)ethyl hydrazinecarboxylate], the negative-log IC50 (pIC50) in assay [1] is 8.40; in assay [2], 8.00.

In the case of `CC(=O)N1CCN(c2ccc(CCc3ccc(CNC(=O)NN)cc3F)nc2)CC1` [Production Example 114, N-(4-{2-[5-(4-acetylpiperazin-1-yl)pyridin-2-yl]ethyl}-3-fluorobenzyl)hydrazinecarboxamide trihydrochloride], the figures for the pIC50 in assay [1] and in assay [2] were 8.70 and 8.92, respectively.

For the molecule `CCN(C)c1ccc(CCc2ccc(CC(=O)NN)cc2)cn1` [Production Example 89, 2-[4-(2-{6-[ethyl(methyl)amino]pyridin-3-yl}ethyl)phenyl]acetohydrazide trihydrochloride], the results for the pIC50 in assay [1] and in assay [2] were 7.81 and 9.05, respectively.

`NNC(=O)Cc1ccc(CCc2cncc(N3CCNCC3)c2)cc1` [Production Example 102, 2-{4-[2-(5-piperazin-1-ylpyridin-3-yl)ethyl]phenyl}acetohydrazide tetrahydrochloride]: the figures for the pIC50 in assay [1] and in assay [2] were 7.71 and 8.03, respectively.

Turning to `CC(=O)N1CCN(c2ccc(CCc3ccc(CC(=O)NN)cc3)cn2)CC1` [Production Example 47, 2-(4-{2-[6-(4-acetylpiperazin-1-yl)pyridin-3-yl]ethyl}phenyl)acetohydrazide trihydrochloride], the pIC50 is 7.79 in assay [1] and 8.44 in assay [2].

Regarding `NNC(=O)Cc1ccc(CCc2ccc(N3CCCCC3)nc2)cc1` [Production Example 45, 2-{4-[2-(6-piperidin-1-ylpyridin-3-yl)ethyl]phenyl}acetohydrazide trihydrochloride], the pIC50 is 7.76 in assay [1] and 8.92 in assay [2].

Regarding `CC(=O)N1CCN(c2ccc(CCc3csc(CCC(=O)NN)c3)nc2)CC1` [Production Example 121, 3-(4-{2-[5-(4-acetylpiperazin-1-yl)pyridin-2-yl]ethyl}thiophen-2-yl)propanehydrazide trihydrochloride], the pIC50 in assay [1] is 8.66; in assay [2], 8.80.

With `CC(=O)N1CCN(c2ccc(CCc3csc(CCCOC(=O)NN)c3)nc2)CC1` [Production Example 124, 3-(4-{2-[5-(4-acetylpiperazin-1-yl)pyridin-2-yl]ethyl}thiophen-2-yl)propylhydrazinecarboxylate], the results for the pIC50 in assay [1] and in assay [2] were 8.33 and 8.26, respectively.

For the molecule `NNC(=O)Cc1ccc(CCc2ccc(N3CCOCC3)nc2)cc1` [Production Example 12, {4-[2-(6-morpholin-4-ylpyridin-3-yl)ethyl]phenyl}acetohydrazide dihydrochloride], the pIC50 in assay [1] was 7.68; in assay [2], 8.96.

For the molecule `CC(=O)N1CCN(c2ccc(CCc3ccc(C(=O)NN)s3)nc2)CC1` [Production Example 116, 5-{2-[5-(4-acetylpiperazin-1-yl)pyridin-2-yl]ethyl}thiophene-2-carbohydrazide], the pIC50 in assay [1] was 8.02; in assay [2], 8.01.

`CC(=O)N1CCN(c2ccc(CCc3ccc(CCC(=O)NN)cc3)nc2)CC1` [Production Example 119, 3-(4-{2-[5-(4-acetylpiperazin-1-yl)pyridin-2-yl]ethyl}phenyl)propanehydrazide trihydrochloride]: the pIC50 is 8.33 in assay [1] and 8.06 in assay [2].

On to `CC(=O)N1CCN(c2ccc(CCc3cccc(CNC(=O)NN)c3)nc2)CC1` [Production Example 112, N-(3-{2-[5-(4-acetylpiperazin-1-yl)pyridin-2-yl]ethyl}benzyl)hydrazinecarboxamide trihydrochloride], for which the pIC50 in assay [1] and in assay [2] was 9.15 each time.

With `NNC(=O)Cc1ccc(CCc2ccc(N3CCNCC3)s2)cc1` [Production Example 74, 2-{4-[2-(5-piperazin-1-ylthiophen-2-yl)ethyl]phenyl}acetohydrazide trihydrochloride], the results for the pIC50 in assay [1] and in assay [2] were 7.91 and 8.39, respectively.

Consider `NNC(=O)Cc1ccc(CCc2ccc(N3CCNCC3)cc2C(F)(F)F)cc1` [Production Example 59, 2-(4-{2-[4-piperazin-1-yl-2-(trifluoromethyl)phenyl]ethyl}phenyl)acetohydrazide trihydrochloride], for which the pIC50 is 7.95 in assay [1] and 8.21 in assay [2].

Take `NNC(=O)Cc1ccc(CCc2ccc(N3CCCC3)nc2)cc1` [Production Example 44, 2-{4-[2-(6-pyrrolidin-1-ylpyridin-3-yl)ethyl]phenyl}acetohydrazide trihydrochloride]: the pIC50 was 7.74 in assay [1] and 8.27 in assay [2].

For `CCN(CC)c1ccc(CCc2ccc(CC(=O)NN)cc2)cc1` [Production Example 30, 2-(4-{2-[4-(diethylamino)phenyl]ethyl}phenyl)acetohydrazide dihydrochloride], the figures for the pIC50 in assay [1] and in assay [2] were 7.89 and 8.66, respectively.

In the case of `NNC(=O)Cc1ccc(CCc2csc(N3CCNCC3)n2)cc1` [Production Example 95, 2-{4-[2-(2-piperazin-1-yl-1,3-thiazol-4-yl)ethyl]phenyl}acetohydrazide dihydrochloride], the pIC50 in assay [1] is 8.20; in assay [2] it was 8.46.

As to `CCN(CCN)c1ccc(CCc2ccc(CC(=O)NN)cc2)cc1` [Production Example 83, 2-[4-(2-{4-[(2-aminoethyl)(ethyl)amino]phenyl}ethyl)phenyl]acetohydrazide trihydrochloride], the pIC50 in assay [1] was 7.69; in assay [2], 8.24.

Regarding `CCN(CC)c1ccc(CCc2ccc(CC(=O)NN)cc2)cn1` [Production Example 85, 2-(4-{2-[6-(diethylamino)pyridin-3-yl]ethyl}phenyl)acetohydrazide trihydrochloride], the pIC50 was 7.80 in assay [1] and 8.72 in assay [2].

As for `NNC(=O)Cc1ccc(CCc2cc(N3CCNCC3)ncn2)cc1` [Production Example 106, 2-{4-[2-(6-piperazin-1-ylpyrimidin-4-yl)ethyl]phenyl}acetohydrazide tetrahydrochloride], the figures for the pIC50 in assay [1] and in assay [2] were 7.72 and 8.12, respectively.

Turning to `CCCN(CCC)c1ccc(CCc2ccc(CC(=O)NN)cc2)cn1` [Production Example 92, 2-(4-{2-[6-(dipropylamino)pyridin-3-yl]ethyl}phenyl)acetohydrazide trihydrochloride], the figures for the pIC50 in assay [1] and in assay [2] were 7.69 and 9.10, respectively.

Regarding `CC(=O)N1CCN(c2ccc(CCc3ccc(OC(=O)NN)cc3)nc2)CC1` [Production Example 110, 4-{2-[5-(4-acetylpiperazin-1-yl)pyridin-2-yl]ethyl}phenyl hydrazinecarboxylate trihydrochloride], the negative-log IC50 (pIC50) was 8.46 in assay [1] and 8.80 in assay [2].

Take `CC(=O)N1CCN(c2ccc(CCc3ccc(CC(=O)NN)cc3)nn2)CC1` [Production Example 99, 2-(4-{2-[6-(4-acetylpiperazin-1-yl)pyridazin-3-yl]ethyl}phenyl)acetohydrazide trihydrochloride]: the figures for the pIC50 in assay [1] and in assay [2] were 7.87 and 8.60, respectively.

`CC(=O)N1CCN(c2cnc(CCc3ccc(CC(=O)NN)cc3)cn2)CC1` [Production Example 101, 2-(4-{2-[5-(4-acetylpiperazin-1-yl)pyrazin-2-yl]ethyl}phenyl)acetohydrazide trihydrochloride]: the figures for the pIC50 in assay [1] and in assay [2] were 8.47 and 8.68, respectively.

The term pIC50 denotes the IC50 on a negative log10 scale, so that one unit is a factor of ten.
